Reference: patent publication US20230024302A1, “2,3,5-TRISUBSTITUTED PYRAZOLO[1,5-A]PYRIMIDINE COMPOUNDS” (Arcus Biosciences, Inc., priority 2019, published 2023)

Legend:
[1] = molecular target: T1, PI3Kγ (Homo sapiens, UniProt P48736); test: PI3Kγ cellular assay in THP-1 cells (AKT pS473 AlphaLISA); assay type: cell-based; conditions: Table 1, rhMCP-1 stimulated AKT pS473, read-out: cellular potency (PI3Kγ IC50)
T1 construct: host or cells: THP-1
Procedure, shortened: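 Serum-starved THP-1 cells (1.8×10^5/well, serum-free DMEM) treated with compounds from 4 nM to 30 μM in 2% DMSO, then stimulated and lysed.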

[2] = molecular target: T2, PI3Kγ (p120γ) (Homo sapiens, UniProt P48736); test: Inhibition of PI3K kinase activity (ADP Glo), PI3Kγ; conditions: Table 1, p120γ, read-out: biochemical potency (PI3Kγ IC50)
T2 construct: purchased Promega V1761
T2 sequence (P48736 whole entry): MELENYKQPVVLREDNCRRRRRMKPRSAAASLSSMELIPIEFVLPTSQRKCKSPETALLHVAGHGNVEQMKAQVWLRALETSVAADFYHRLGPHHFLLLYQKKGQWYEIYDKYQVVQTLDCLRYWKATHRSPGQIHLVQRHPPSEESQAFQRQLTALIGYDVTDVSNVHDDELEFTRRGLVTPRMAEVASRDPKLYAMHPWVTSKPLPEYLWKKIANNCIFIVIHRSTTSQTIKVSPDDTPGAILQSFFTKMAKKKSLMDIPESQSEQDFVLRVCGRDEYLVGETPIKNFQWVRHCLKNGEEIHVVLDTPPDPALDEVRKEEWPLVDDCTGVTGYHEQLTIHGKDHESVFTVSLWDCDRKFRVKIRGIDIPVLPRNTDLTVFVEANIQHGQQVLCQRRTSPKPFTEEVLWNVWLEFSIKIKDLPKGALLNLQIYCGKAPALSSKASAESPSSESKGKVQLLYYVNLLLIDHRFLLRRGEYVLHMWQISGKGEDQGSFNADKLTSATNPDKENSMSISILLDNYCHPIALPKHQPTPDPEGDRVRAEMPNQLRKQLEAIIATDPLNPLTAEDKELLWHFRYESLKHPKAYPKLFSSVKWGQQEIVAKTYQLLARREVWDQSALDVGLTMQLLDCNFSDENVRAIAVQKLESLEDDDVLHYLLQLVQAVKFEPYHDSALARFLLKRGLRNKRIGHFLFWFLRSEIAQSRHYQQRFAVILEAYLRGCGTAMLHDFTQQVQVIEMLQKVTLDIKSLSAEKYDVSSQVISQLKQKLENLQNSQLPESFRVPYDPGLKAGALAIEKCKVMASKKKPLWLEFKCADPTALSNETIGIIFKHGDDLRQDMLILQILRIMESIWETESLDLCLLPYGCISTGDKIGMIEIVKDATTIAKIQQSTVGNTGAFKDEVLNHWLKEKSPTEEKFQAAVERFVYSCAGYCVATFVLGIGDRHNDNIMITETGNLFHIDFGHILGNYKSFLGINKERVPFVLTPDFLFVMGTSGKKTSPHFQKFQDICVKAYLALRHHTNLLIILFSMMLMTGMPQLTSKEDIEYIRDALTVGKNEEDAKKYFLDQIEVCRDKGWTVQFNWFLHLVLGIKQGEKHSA
Procedure, shortened: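 Recombinant p120γ (8 nM, 2× stock) was preincubated with compound for 1 h at rt in HEPES pH 7.4, NaCl, MgCl2 and 0.05% BSA. Reaction was started with PIP2 (0.1 mg/ml, 2×) and ATP (50 μM, 2×) and ran 60 min at rt. ADP formed was read by ADP-Glo luminescence, and IC50 came from a 4-parameter fit.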

T1 sequence (P48736 whole entry): as above

| SMILES | IC50 [1] [nM] | IC50 [2] [nM] |
| --- | --- | --- |
| C[C@@H](C1CC1)N1Cc2cc(-c3ccn4nc(N)c(C(N)=O)c4n3)cc(NS(C)(=O)=O)c2C1=O [Example 76, 5-{2-[(S)-1-Cyclopropylethyl]-7-(methylsulfonylamino)-5-isoindolinoyl}-2-amino-1,4,7a-triaza-3-indenecarboxamide] | 100 to 1000 | < 100 |
| C[C@@H](C1CC1)N1Cc2cc(-c3ccn4nc(N)c(C(=O)N[C@H]5C[C@](C)(O)C5)c4n3)cc(NS(C)(=O)=O)c2C1=O [Example 82, 2-Amino-5-{2-[(1S)-1-cyclopropylethyl]-7-methanesulfonamido-1-oxo-2,3-dihydro-1H-isoindol-5-yl}-N-[trans-3-hydroxy-3-methylcyclobutyl]pyrazolo[1,5-a]pyrimidine-3-carboxamide] | < 100 | < 100 |
| C[C@@H](C1CC1)N1Cc2cc(-c3ccn4nc(N)c(C(=O)N[C@]5(C)C[C@@H](O)C5)c4n3)cc(NS(C)(=O)=O)c2C1=O [Example 83, 2-Amino-5-{2-[(1S)-1-cyclopropylethyl]-7-methanesulfonamido-1-oxo-2,3-dihydro-1H-isoindol-5-yl}-N-[trans-3-hydroxy-1-methylcyclobutyl]pyrazolo[1,5-a]pyrimidine-3-carboxamide] | < 100 | < 100 |
| CO[C@H]1C[C@H](NC(=O)c2c(N)nn3ccc(-c4cc5c(c(NS(C)(=O)=O)c4)C(=O)N([C@@H](C)C4CC4)C5)nc23)C1 [Example 84, 2-Amino-5-{2-[(1S)-1-cyclopropylethyl]-7-methanesulfonamido-1-oxo-2,3-dihydro-1H-isoindol-5-yl}-N-[trans-3-methoxycyclobutyl]pyrazolo[1,5-a]pyrimidine-3-carboxamide] | < 100 | < 100 |
| C[C@@H](C1CC1)N1Cc2cc(-c3ccn4nc(N)c(C(=O)NC[C@H]5C[C@H](O)C5)c4n3)cc(NS(C)(=O)=O)c2C1=O [Example 85, 2-Amino-5-{2-[(1S)-1-cyclopropylethyl]-7-methanesulfonamido-1-oxo-2,3-dihydro-1H-isoindol-5-yl}-N-{[trans-3-hydroxycyclobutyl]methyl}pyrazolo[1,5-a]pyrimidine-3-carboxamide] | < 100 | < 100 |
| C[C@@H](C1CC1)N1Cc2cc(-c3ccn4nc(N)c(C(=O)N[C@@H]5CC[C@@H](O)C5)c4n3)cc(NS(C)(=O)=O)c2C1=O [Example 86, 2-Amino-5-{2-[(1S)-1-cyclopropylethyl]-7-methanesulfonamido-1-oxo-2,3-dihydro-1H-isoindol-5-yl}-N-[(1R,3R)-3-hydroxycyclopentyl]pyrazolo[1,5-a]pyrimidine-3-carboxamide] | < 100 | < 100 |
| C[C@@H](C1CC1)N1Cc2cc(-c3ccn4nc(N)c(C(=O)NC5CC5)c4n3)cc(NS(C)(=O)=O)c2C1=O [Example 87, 2-Amino-N-cyclopropyl-5-{2-[(1S)-1-cyclopropylethyl]-7-methanesulfonamido-1-oxo-2,3-dihydro-1H-isoindol-5-yl}pyrazolo[1,5-a]pyrimidine-3-carboxamide] | < 100 | < 100 |
| C[C@@H](C1CC1)N1Cc2cc(-c3ccn4nc(N)c(C(=O)N[C@@H]5COC[C@H]5O)c4n3)cc(NS(C)(=O)=O)c2C1=O [Example 88, 2-Amino-5-{2-[(1S)-1-cyclopropylethyl]-7-methanesulfonamido-1-oxo-2,3-dihydro-1H-isoindol-5-yl}-N-[(3R,4S)-4-hydroxyoxolan-3-yl]pyrazolo[1,5-a]pyrimidine-3-carboxamide] | < 100 | < 100 |
| C[C@@H](C1CC1)N1Cc2cc(-c3ccn4nc(N)c(C(=O)N[C@H]5CC[C@@](C)(O)CC5)c4n3)cc(NS(C)(=O)=O)c2C1=O [Example 89, 2-Amino-5-{2-[(1S)-1-cyclopropylethyl]-7-methanesulfonamido-1-oxo-2,3-dihydro-1H-isoindol-5-yl}-N-[cis-4-hydroxy-4-methylcyclohexyl]pyrazolo[1,5-a]pyrimidine-3-carboxamide] | < 100 | < 100 |
| C[C@@H](C1CC1)N1Cc2cc(-c3ccn4nc(N)c(C(=O)N[C@H]5CC[C@](O)(C(F)(F)F)CC5)c4n3)cc(NS(C)(=O)=O)c2C1=O [Example 90, 2-Amino-5-{2-[(1S)-1-cyclopropylethyl]-7-methanesulfonamido-1-oxo-2,3-dihydro-1H-isoindol-5-yl}-N-[cis-4-hydroxy-4-(trifluoromethyl)cyclohexyl]pyrazolo[1,5-a]pyrimidine-3-carboxamide] | < 100 | < 100 |
| C[C@@H](C1CC1)N1Cc2cc(-c3ccn4nc(N)c(C(=O)N[C@H]5CC[C@H](C(C)(C)O)CC5)c4n3)cc(NS(C)(=O)=O)c2C1=O [Example 91, 2-Amino-5-{2-[(1S)-1-cyclopropylethyl]-7-methanesulfonamido-1-oxo-2,3-dihydro-1H-isoindol-5-yl}-N-[trans-4-(2-hydroxypropan-2-yl)cyclohexyl]pyrazolo[1,5-a]pyrimidine-3-carboxamide] | < 100 | < 100 |
| C[C@@H](C1CC1)N1Cc2cc(-c3ccn4nc(N)c(C(=O)N[C@H]5CC[C@H](C6(O)CC6)CC5)c4n3)cc(NS(C)(=O)=O)c2C1=O [Example 92, 2-Amino-5-{2-[(1S)-1-cyclopropylethyl]-7-methanesulfonamido-1-oxo-2,3-dihydro-1H-isoindol-5-yl}-N-[trans-4-(1-hydroxycyclopropyl)cyclohexyl]pyrazolo[1,5-a]pyrimidine-3-carboxamide] | < 100 | < 100 |
| C[C@H](CO)NC(=O)c1c(N)nn2ccc(-c3cc4c(c(NS(C)(=O)=O)c3)C(=O)N([C@@H](C)C3CC3)C4)nc12 [Example 93, 2-Amino-5-{2-[(1S)-1-cyclopropylethyl]-7-methanesulfonamido-1-oxo-2,3-dihydro-1H-isoindol-5-yl}-N-[(2R)-1-hydroxypropan-2-yl]pyrazolo[1,5-a]pyrimidine-3-carboxamide] | < 100 | < 100 |

The next lines start with the values.

| IC50 [1] [nM] | IC50 [2] [nM] | SMILES |
| --- | --- | --- |
| < 100 | < 100 | C[C@@H](C1CC1)N1Cc2cc(-c3ccn4nc(N)c(C(=O)N[C@@H]5CCC[C@H]5O)c4n3)cc(NS(C)(=O)=O)c2C1=O [Example 72, 2-Amino-5-{2-[(1S)-1-cyclopropylethyl]-7-methanesulfonamido-1-oxo-2,3-dihydro-1H-isoindol-5-yl}-N-[(1R,2R)-2-hydroxycyclopentyl]pyrazolo[1,5-a]pyrimidine-3-carboxamide] |
| < 100 | < 100 | CNC(=O)c1c(N)nn2ccc(-c3cc4c(c(NS(C)(=O)=O)c3)C(=O)N([C@@H](C)C3CC3)C4)nc12 [Example 73, 2-Amino-5-{2-[(1S)-1-cyclopropylethyl]-7-methanesulfonamido-1-oxo-2,3-dihydro-1H-isoindol-5-yl}-N-methylpyrazolo[1,5-a]pyrimidine-3-carboxamide] |
| < 100 | < 100 | CCNC(=O)c1c(N)nn2ccc(-c3cc4c(c(NS(C)(=O)=O)c3)C(=O)N([C@@H](C)C3CC3)C4)nc12 [Example 74, 2-Amino-5-{2-[(1S)-1-cyclopropylethyl]-7-methanesulfonamido-1-oxo-2,3-dihydro-1H-isoindol-5-yl}-N-ethylpyrazolo[1,5-a]pyrimidine-3-carboxamide] |
| < 100 | < 100 | CC(C)NC(=O)c1c(N)nn2ccc(-c3cc4c(c(NS(C)(=O)=O)c3)C(=O)N([C@@H](C)C3CC3)C4)nc12 [Example 75, 2-Amino-5-{2-[(1S)-1-cyclopropylethyl]-7-methanesulfonamido-1-oxo-2,3-dihydro-1H-isoindol-5-yl}-N-(propan-2-yl)pyrazolo[1,5-a]pyrimidine-3-carboxamide] |
| < 100 | < 100 | C[C@@H](C1CC1)N1Cc2cc(-c3ccn4nc(N)c(C(=O)NC5CC56CC6)c4n3)cc(NS(C)(=O)=O)c2C1=O (stereo partly drawn) [Example 77, 2-[(S)-1-Cyclopropylethyl]-5-(2-amino-3-{(1-spiro[2.2]pentylamino)carbonyl}-1,4,7a-triaza-5-indenyl)-7-(methylsulfonylamino)-1-isoindolinone] |
| < 100 | < 100 | C[C@@H](C1CC1)N1Cc2cc(-c3ccn4nc(N)c(C(=O)NC5COC5)c4n3)cc(NS(C)(=O)=O)c2C1=O [Example 78, 2-Amino-5-{2-[(1S)-1-cyclopropylethyl]-7-methanesulfonamido-1-oxo-2,3-dihydro-1H-isoindol-5-yl}-N-(oxetan-3-yl)pyrazolo[1,5-a]pyrimidine-3-carboxamide] |
| < 100 | < 100 | C[C@@H](C1CC1)N1Cc2cc(-c3ccn4nc(N)c(C(=O)NC5(C)COC5)c4n3)cc(NS(C)(=O)=O)c2C1=O [Example 79, 2-Amino-5-{2-[(1S)-1-cyclopropylethyl]-7-methanesulfonamido-1-oxo-2,3-dihydro-1H-isoindol-5-yl}-N-(3-methyloxetan-3-yl)pyrazolo[1,5-a]pyrimidine-3-carboxamide] |
| < 100 | < 100 | C[C@@H](C1CC1)N1Cc2cc(-c3ccn4nc(N)c(C(=O)NC5(C#N)COC5)c4n3)cc(NS(C)(=O)=O)c2C1=O [Example 80, 2-Amino-N-(3-cyanooxetan-3-yl)-5-{2-[(1S)-1-cyclopropylethyl]-7-methanesulfonamido-1-oxo-2,3-dihydro-1H-isoindol-5-yl}pyrazolo[1,5-a]pyrimidine-3-carboxamide] |
| < 100 | < 100 | C[C@@H](C1CC1)N1Cc2cc(-c3ccn4nc(N)c(C(=O)NC5(C#N)CCC5)c4n3)cc(NS(C)(=O)=O)c2C1=O [Example 81, 2-Amino-N-(1-cyanocyclobutyl)-5-{2-[(1S)-1-cyclopropylethyl]-7-methanesulfonamido-1-oxo-2,3-dihydro-1H-isoindol-5-yl}pyrazolo[1,5-a]pyrimidine-3-carboxamide] |
